As usually defined, the IC50 is the concentration that gives 50% inhibition. For orientation: pIC50 means the IC50 on a negative log10 scale, so that one unit is a factor of ten.

The results in this text go back to PubChem BioAssay AID712 (Emory University Molecular Libraries Screening Center, 2007).

This experiment deals with Heat shock protein HSP 90-alpha (Homo sapiens) (UniProt P07900). In words: tumor Hsp90 inhibitor potency, dose response (AID 712). The conditions noted are these: Hsp90 inhibition assay.

pIC50: −log10 of the molar value. Active and inactive are the calls of the source. The rule behind the calls is not given here. A value given as a limit tells only on which side of the number the result lay.

Consider `COc1ccc(N2C(=O)CSC23C(=O)N2CCCc4cccc3c42)cc1` (stereo not given), for which the IC50 is > 50 µM (inactive).

As for `COc1ccc(S(=O)(=O)Nc2ccc(O)c(-c3ccccc3O)c2)cc1OC`, the IC50 was > 50 µM (inactive).

On to `O=C(c1n[nH]c(=O)c2ccccc12)N1CCN(C2c3ccccc3-c3ccccc32)CC1`, for which the IC50 was > 50 µM (inactive).

In the case of `COc1ccc(S(=O)(=O)Nc2ccc(N)c(-c3ccccc3O)c2)cc1OC`, the IC50 is > 50 µM (inactive).

`Cn1c(=O)c2c(nc(Oc3ccc4c(c3)OCO4)n2Cc2ccc(Cl)cc2)n(C)c1=O`: the IC50 is > 50 µM (inactive).

`O=C1C(=Cc2ccccn2)CNCC1=Cc1ccccn1`: the IC50 was > 50 µM (inactive).

`Cc1ccc2[nH]c3c(c2c1)CN(C(=O)CN1CCN(c2ccccc2)CC1)CC3`: the IC50 is > 50 µM (inactive).

As to `Cc1ccc(S(=O)(=O)Nc2cc(O)cc3cccnc23)cc1`, the IC50 was > 50 µM (inactive).

For the compound `COc1ccc2c(c1-c1cc(NS(=O)(=O)c3cc(Cl)ccc3Cl)ccc1N)OCO2`, the IC50 is > 50 µM (inactive).

With `CCCCCC(=O)N1CC2(C)CN(C(=O)CCCCC)CC(C)(C1)C2=O`, the IC50 was > 50 µM (inactive).

On to `COc1ccc(NCc2cc3cc(OC)ccc3[nH]c2=O)cc1`, for which the IC50 is > 50 µM (inactive).

Take `Cc1ccc(OC(=O)c2ccc(N)cc2O)cc1`: the IC50 is > 50 µM (inactive).

On to `N#Cc1cc(S(=O)(=O)Nc2cc(OCc3ccccc3)cc3cccnc23)ccc1F`, for which the IC50 is > 50 µM (inactive).

In the case of `COC(=O)c1cc(=O)[nH]c2ccc(C)cc12`, the IC50 is > 50 µM (inactive).

As to `CC(=O)Nc1cnc2ccccc2n1`, the IC50 entry was “inactive”.

Regarding `COc1ccc(C(=O)c2c(C)n(C)c(=O)n(C)c2=O)cc1`, the IC50 was > 50 µM (inactive).

Turning to `Cc1ccc(S(=O)(=O)Nc2ccc(N)c(-c3ccccc3O)c2)cc1`, the IC50 was > 50 µM (inactive).

In the case of `CCOc1ccc2ccccc2c1-c1cc(NS(=O)(=O)c2cc(Cl)ccc2Cl)ccc1N`, the IC50 was > 50 µM (inactive).

As to `CC(C)NCCCCCNc1cc(O)cc2cccnc12`, the negative-log IC50 (pIC50) is 5.20.

For the compound `CCc1cc(-c2[nH]ncc2-c2ccc3c(c2)OCO3)c(O)cc1O`, the pIC50 is 5.71.

On to `O=[N+]([O-])c1cc(O)cc2cccnc12`, for which the pIC50 is 5.81.

With `Nc1cc(N)nc(SCC(=O)Nc2nncs2)n1`, the IC50 is > 50 µM (inactive).

With `Nc1ccc(NS(=O)(=O)c2ccccc2[N+](=O)[O-])cc1-c1ccccc1O`, the IC50 is > 50 µM (inactive).

On to `Cc1ccc(S(=O)(=O)Nc2ccc(F)c(-c3c(O)ccc4c3OCO4)c2)cc1`, for which the pIC50 is 4.60.

For `Nc1ccc(NS(=O)(=O)c2cccc([N+](=O)[O-])c2)cc1-c1ccccc1O`, the IC50 was > 50 µM (inactive).

Take `CCOC(=O)c1cnc(SC2CCc3ccccc3C2=O)nc1N` (stereo not given): the pIC50 is 4.82.

`CCn1cc(C(=O)NCc2ccccn2)c(=O)c2cc(S(=O)(=O)N3CCCCC3)ccc21`: the pIC50 was 4.76.

Consider `COc1cc(NC(=O)CCCCCCN)c2ncccc2c1`, for which the IC50 is > 50 µM (inactive).

For the compound `COc1ccc2c3c(cccc13)NN=C2C`, the pIC50 was 5.08.

Regarding `OCCN(CCO)c1nc(N2CCCCC2)c2nc(N(CCO)CCO)nc(N3CCCCC3)c2n1`, the pIC50 was 4.68.

In the case of `COc1cc(C2CC(c3ccccc3O)=NN2)ccc1O` (stereo not given), the IC50 was > 50 µM (inactive).

On to `Nc1nonc1N1CCCCC1`, for which the IC50 is > 50 µM (inactive).

In the case of `CCOC(=O)c1oc2c(O)c(O)ccc2c(=O)c1-c1nncn1-c1ccccc1`, the pIC50 was 4.62.

Take `O=[N+]([O-])c1ccc(S(=O)(=O)Nc2cc(OCc3ccccc3)cc3cccnc23)cc1F`: the IC50 was > 50 µM (inactive).

Turning to `Nc1cc(Br)cc2cccnc12`, the IC50 is > 50 µM (inactive).

With `COc1cc(NCCCC(C)=O)c2nccc(Cl)c2c1`, the IC50 is > 50 µM (inactive).

Consider `Nc1ccc(NS(=O)(=O)c2ccccc2)c(O)c1`, for which the IC50 is > 50 µM (inactive).

Regarding `Cc1ccc(S(=O)(=O)Nc2ccc3oc(=O)sc3c2)c(C)c1`, the IC50 result was “inactive”.

On to `CC(=O)Nc1cc(OC(C)=O)c2nonc2c1OC(C)=O`, for which the pIC50 was 5.24.

With `O=C1C2C3C=CC(C3)C2C(=O)N1CNc1ccc(O)cc1` (stereo not given), the pIC50 is 4.83.

Consider `O=C(COc1ccccc1Cl)c1ccc(O)cc1O`, for which the IC50 is > 50 µM (inactive).

Take `COc1cc(NCCCC(C)N)c2ncccc2c1` (stereo not given): the IC50 was > 50 µM (inactive).

With `Nc1ccc2[nH]ccc2c1`, the IC50 is > 50 µM (inactive).

As to `Nc1cccc2cc(O)ccc12`, the IC50 is > 50 µM (inactive).

In the case of `COc1ccc(S(=O)(=O)Nc2ccc3c(c2)OCO3)cc1OC`, the IC50 entry is “inactive”.
